{
  "source": "patent US7888123B2",
  "about": "(priority 2005, dated 2011)",
  "key": {"[1]": {"test_system": "transformant having actin promoter", "conditions": "GPY plate media, 28° C."}, "[2]": {"test_system": "Schizochytrium sp. CB15-5", "conditions": "medium containing 10 to 30 μg/ml Zeocin; 28° C., 72 hours in the shade", "protocol": "(3) Test for Zeocin Sensitivity of CB15-5 Strain\nThe precultured microorganism cells were diluted 1000-fold, and 100 μL thereof was seeded onto GYP plate media having Zeocin concentration ranging from 0 to 50 μg/ml, and incubated at 28° C. for 72 hours in the shade. The number and size of the resulting colonies were measured."}, "[3]": {"test_system": "transformant having ef1α promoter", "conditions": "GPY plate media, 28° C.", "protocol": "(§1) (22) Test for Zeocin Sensitivity of Transformant\n(§2) The precultured microorganism cells were diluted to 20 cells/μl, and 1 μl thereof was spotted onto GPY plate media having Zeocin concentration ranging from 0 to 6000 μg/ml and incubated in the shade at 28° C. for 60 hours."}, "[4]": {"test_system": "transformant having gapdh promoter", "conditions": "GPY plate media, 28° C.", "protocol": "as §1, §2"}, "[5]": {"test_system": "wild type (CB15-5 strain)", "conditions": "GPY plate media, 28° C.", "protocol": "as §1, §2"}},
  "data": [
    {"smiles": "Cc1c(N)nc([C@H](CC(N)=O)NC[C@H](N)C(N)=O)nc1C(=O)N[C@H](C(=O)N[C@H](C)[C@@H](O)[C@H](C)C(=O)N[C@H](C(=O)NCCC1=N[C@@H](c2nc(C(=O)NCCCCN=C(N)N)cs2)CS1)[C@@H](C)O)[C@@H](O[C@@H]1O[C@@H](CO)[C@@H](O)[C@H](O)[C@@H]1O[C@H]1O[C@H](CO)[C@@H](O)[C@H](OC(N)=O)[C@@H]1O)c1cnc[nH]1", "note": "[Zeocin]", "values": [
      {"measurement": "Zeocin concentration up to which viable", "setting": "[1]", "value": "up to 4000 μg/ml"},
      {"measurement": "number and size of the colonies", "setting": "[2]", "value": "concentration-dependent decrease"},
      {"measurement": "Zeocin concentration up to which viable", "setting": "[3]", "value": "≤ 6000", "unit": "µg/mL"},
      {"measurement": "Zeocin concentration up to which viable", "setting": "[4]", "value": "≤ 2000", "unit": "µg/mL"},
      {"measurement": "Zeocin concentration in which completely nonviable", "setting": "[5]", "value": 20, "unit": "µg/mL"}
    ]}
  ]
}
